# Source: ChEMBL document CHEMBL4823282, “Novel Broad-Spectrum Antimicrobial Peptide Derived from Anoplin and Its Activity on Bacterial Pneumonia in Mice” (J Med Chem, 2021)
# The source made the active and inactive calls. The rule behind the calls is not given here. Where a SMILES comes first, the peptide text is derived from it.
# Key:
# Pseudomonas aeruginosa [1] = assay: Antibacterial activity against Pseudomonas aeruginosa ATCC 27853 at 0.5 to 4 times MIC incubated for 24 hrs by crystal violet staining based assay; assay type: functional, organism-based
# [2] = Stability in BALB/C mouse serum measured up to 1440 mins by HPLC analysis; assay type: ADME, cell-free
# [3] = Selectivity ratio of MHC10 for BALB/C mouse erythrocytes to MIC for gram positive bacteria; assay type: toxicity
# Staphylococcus aureus [4] = assay: Antibacterial activity against Staphylococcus aureus ATCC 25923 incubated for 18 hrs by CLSI based broth dilution method; assay type: functional
# Klebsiella pneumoniae [5] = assay: Antibacterial activity against Klebsiella pneumoniae ATCC 700603 incubated with 0.2 to 0.02 ug/ml trypsin for 6 hrs followed by bacterial addition and measured after 18 hrs by CLSI based broth dilution method; assay type: functional, organism-based; details: dose 0.2-0.02 µg/ml, time 23.0 hrs
# Staphylococcus aureus [6] = assay: Disruption of membrane integrity in Staphylococcus aureus ATCC 25923 assessed as membrane blebbing at 1 times MIC measured within 0.5 hrs by scanning electron microscopy; assay type: functional, organism-based
# Staphylococcus aureus [7] = assay: Antibacterial activity against Staphylococcus aureus ATCC 25923 incubated with 0.2 to 0.02 ug/ml trypsin for 6 hrs followed by bacterial addition and measured after 18 hrs by CLSI based broth dilution method; assay type: functional, organism-based; details: dose 0.2-0.02 µg/ml, time 23.0 hrs
# Enterococcus faecalis = assay: Antibacterial activity against Enterococcus faecalis ATCC 29212 incubated for 18 hrs by CLSI based broth dilution method; assay type: functional
# [8] = Selectivity ratio of MHC10 for BALB/C mouse erythrocytes to MIC for fungi; assay type: toxicity
# [9] = test system: Staphylococcus epidermidis; assay: Antibacterial activity against Staphylococcus epidermidis ATCC 12228 incubated for 18 hrs by CLSI based broth dilution method; assay type: functional
# Acinetobacter baumannii = assay: Antibacterial activity against Acinetobacter baumannii ATCC 19606 incubated for 18 hrs by CLSI based broth dilution method; assay type: functional; details: ATCC 19606 = CIP 70.34 = JCM 6841
# Cell membrane [10] = assay: Induction of inner membrane permeabilization in Klebsiella pneumoniae ATCC 700603 at 0.5 to 4MIC using ONPG as substrate by spectroscopic method; assay type: subcellular; details: Klebsiella pneumoniae 700603, 0.5 to 4M
# Klebsiella pneumoniae [11] = assay: Antibacterial activity against Klebsiella pneumoniae ATCC 700603 incubated for 18 hrs by CLSI based broth dilution method; assay type: functional
# Bacteria [12] = assay: Antibacterial activity against Gram-negative bacteria incubated for 18 hrs by CLSI based broth dilution method; assay type: functional
# Bacteria [13] = assay: Antibacterial activity against bacteria incubated for 18 hrs by CLSI based broth dilution method; assay type: functional
# [14] = Selectivity ratio of MHC10 for BALB/C mouse erythrocytes to MIC for gram-negative bacteria; assay type: toxicity
# Klebsiella pneumoniae [15] = assay: Antibacterial activity against Klebsiella pneumoniae ATCC 700603 incubated with 0.2 to 0.02 ug/ml chymotrypsin for 6 hrs followed by bacterial addition and measured after 18 hrs by CLSI based broth dilution method; assay type: functional, organism-based; details: dose 0.2-0.02 µg/ml, time 23.0 hrs
# Erythrocyte = assay: Hemolytic activity in BALB/C mouse erythrocytes incubated for 1 hr by absorbance method; assay type: ADME, cell-based
# Escherichia coli [16] = assay: Antibiofilm activity against Escherichia coli ATCC 25922 at 4 times MIC incubated for 24 hrs by crystal violet staining based assay; assay type: functional, organism-based
# Staphylococcus aureus [17] = assay: Antibacterial activity against Staphylococcus aureus ATCC 25923 at 0.5 to 1 times MIC incubated for 24 hrs by crystal violet staining based assay; assay type: functional, organism-based
# Cell membrane [18] = assay: Disruption of membrane integrity in Staphylococcus aureus ATCC 25923 assessed as bacterial death at 1 times MIC measured within 0.5 hrs by scanning electron microscopy; assay type: subcellular
# Staphylococcus aureus [19] = assay: Disruption of bacterial cell membrane in Staphylococcus aureus ATCC 25923 assessed as increase in PI uptake incubated for 30 to 120 mins by FACS flow cytometry; assay type: functional, organism-based; details: time 30-120 min
# Bacillus subtilis = assay: Antibacterial activity against Bacillus subtilis ATCC 23857 incubated for 18 hrs by CLSI based broth dilution method; assay type: functional
# Cell membrane [20] = assay: Disruption of membrane integrity in Staphylococcus aureus ATCC 25923 assessed as membrane shrinking at 1 times MIC measured within 0.5 hrs by scanning electron microscopy; assay type: subcellular
# Klebsiella pneumoniae [21] = assay: Bactericidal activity against Klebsiella pneumoniae 700603 at 2MIC by time-kill assay relative to control; assay type: functional; details: 2M, TDE = time-dependent effect
# [22] = Selectivity ratio of MHC10 for BALB/C mouse erythrocytes to MIC for bacteria; assay type: toxicity
# Fungi = assay: Antibacterial activity against fungi incubated for 18 hrs by CLSI based broth dilution method; assay type: functional
# Klebsiella pneumoniae [23] = assay: Antibiofilm activity against Klebsiella pneumoniae ATCC 700603 at 2 to 4 times MIC incubated for 24 hrs by crystal violet staining based assay; assay type: functional, organism-based
# Staphylococcus aureus [24] = assay: Bactericidal activity against Staphylococcus aureus ATCC 25923 at 2MIC by time-kill assay; assay type: functional, organism-based; details: time 24.0 hrs, TDE = time-dependent effect
# Escherichia coli [25] = assay: Antibacterial activity against Escherichia coli ATCC 25922 incubated for 18 hrs by CLSI based broth dilution method; assay type: functional
# Staphylococcus aureus [26] = assay: Antibacterial activity against Staphylococcus aureus ATCC 25923 incubated with 0.2 to 0.02 ug/ml chymotrypsin for 6 hrs followed by bacterial addition and measured after 18 hrs by CLSI based broth dilution method; assay type: functional, organism-based; details: dose 0.2-0.02 µg/ml
# [27] = Cytotoxicity against human glomerular mesangial cells incubated for 12 hrs by MTT assay; assay type: cell-based; details: Glomerular mesangial cell
# Pseudomonas aeruginosa [28] = assay: Synergistic antibacterial activity against Pseudomonas aeruginosa ATCC 27853 at 2 times MIC incubated for 18 to 24 hrs in presence of 2 times MIC of polymyxin B by broth microdilution assay based checkerboard assay; assay type: functional; details: time 18-24 hrs
# Bacteria [29] = assay: Antibacterial activity against Gram-positive bacteria incubated for 18 hrs by CLSI based broth dilution method; assay type: functional
# [30] = Stability in BALB/C mouse serum assessed as compound degradation time measured up to 1440 mins by HPLC analysis; assay type: ADME, cell-free; details: 24 h
# Pseudomonas aeruginosa [31] = assay: Antibacterial activity against Pseudomonas aeruginosa ATCC 27853 incubated for 18 hrs by CLSI based broth dilution method; assay type: functional
# Pseudomonas aeruginosa [32] = assay: Antibacterial activity against gentamicin-resistant Pseudomonas aeruginosa ATCC 27853 incubated for 18 hrs by CLSI based broth dilution method; assay type: functional
# Pseudomonas aeruginosa [33] = assay: Antibacterial activity against Pseudomonas aeruginosa ATCC 27853 incubated for 18 hrs in presence of EDTA by CLSI based broth dilution method; assay type: functional
# Pseudomonas aeruginosa [34] = assay: Antibacterial activity against Pseudomonas aeruginosa ATCC 27853 assessed as increase in MIC at sub-MIC level after 15 passages by broth microdilution assay; assay type: functional
# Pseudomonas aeruginosa [35] = assay: Antibacterial activity against rifampin-resistant Pseudomonas aeruginosa ATCC 27853 incubated for 18 hrs in presence of EDTA by CLSI based broth dilution method; assay type: functional
# Pseudomonas aeruginosa [36] = assay: Antibacterial activity against rifampin-resistant Pseudomonas aeruginosa ATCC 27853 incubated for 18 hrs by CLSI based broth dilution method; assay type: functional
structure (smiles),measurement,setting,value
CC[C@H](C)[C@H](NC(=O)[C@H](CCCNC(=N)N)NC(=O)[C@H](CCCCN)NC(=O)[C@H](CC(C)C)NC(=O)[C@H](CC(C)C)NC(=O)CN)C(=O)N[C@@H](CCCCN)C(=O)N[C@H](C(=O)N[C@@H](CC(C)C)C(=O)N[C@@H](CC(C)C)C(N)=O)[C@@H](C)O [ANOPLIN] (H-GLLKRIKTLL-NH2),Activity,Pseudomonas aeruginosa [1],inactive
same,half-life,[2],134 min
same,selectivity ratio at 18 h,[3],8
same,MIC,Staphylococcus aureus [4],256 µM
same,Activity,Klebsiella pneumoniae [5],Active
same,Activity,Staphylococcus aureus [6],inactive
same,Activity,Staphylococcus aureus [7],Active
same,MIC,Enterococcus faecalis,≥ 512 µM
same,selectivity ratio,[8],6.73
same,MIC,[9],16 µM
same,MIC,Acinetobacter baumannii,≥ 512 µM
same,Activity,Cell membrane [10],inactive
same,MIC,Klebsiella pneumoniae [11],128 µM
same,MIC,Bacteria [12],90.5 µM
same,MIC,Bacteria [13],76.1 µM
same,selectivity ratio,[14],5.66
same,Activity,Klebsiella pneumoniae [15],Active
same,MHC10,Erythrocyte,>= 512 uM
same,Activity,Escherichia coli [16],Active
same,Activity,Staphylococcus aureus [17],Active
same,Activity,Cell membrane [18],inactive
same,Activity,Staphylococcus aureus [19],Active
same,MIC,Bacillus subtilis,8 µM
same,Activity,Cell membrane [20],inactive
same,Activity,Klebsiella pneumoniae [21],Tde
same,selectivity ratio,[22],6.73
same,MIC,Fungi,76.1 µM
same,Activity,Klebsiella pneumoniae [23],Active
same,Activity,Staphylococcus aureus [24],Tde
same,MIC,Escherichia coli [25],128 µM
same,Activity,Staphylococcus aureus [26],inactive
same,IC50,[27],≥ 512 µM
same,FIC,Pseudomonas aeruginosa [28],0.5625
same,MIC,Bacteria [29],64 µM
same,Time,[30],12.14 min
same,MIC,Pseudomonas aeruginosa [31],8 µM
CO[C@H]1/C=C/O[C@@]2(C)Oc3c(C)c(O)c4c(O)c(c(/C=N/N5CCN(C)CC5)c(O)c4c3C2=O)NC(=O)/C(C)=C\C=C\[C@H](C)[C@H](O)[C@@H](C)[C@@H](O)[C@@H](C)[C@H](OC(C)=O)[C@@H]1C [RIFAMPIN],MIC,Staphylococcus aureus [4],< 1 µM
same,MIC,Pseudomonas aeruginosa [32],32 µM
same,MIC,Pseudomonas aeruginosa [33],2 µM
same,MIC,Enterococcus faecalis,< 1 µM
same,fold change (FC),Pseudomonas aeruginosa [34],128
same,MIC,[9],< 1 µM
same,MIC,Acinetobacter baumannii,< 1 µM
same,MIC,Klebsiella pneumoniae [11],32 µM
same,MIC,Pseudomonas aeruginosa [35],2050 µM
same,MIC,Bacillus subtilis,< 1 µM
same,MIC,Escherichia coli [25],4 µM
same,MIC,Pseudomonas aeruginosa [31],4 µM
same,MIC,Pseudomonas aeruginosa [36],2050 µM
